Literature values as cited in paper PMC13151045, “Accounting for Differences in Plasma Protein Binding between Fish and Humans for Supporting Environmental Risk Assessment of Pharmaceuticals Using the Fish Plasma Model” (Environmental Science & Technology, 2026).

Details: minimum reported human therapeutic plasma concentration; ref footnote e of Table 4

Human C max | Structure (SMILES)
0.0558 mg/L | CC1Cc2ccccc2N1NC(=O)c1ccc(Cl)c(S(N)(=O)=O)c1 (centres unmarked) [Indapamide]
0.02 mg/L | CC(C)NCC(O)COc1cccc2ccccc12 (centres unmarked) [Propranolol]
